Among the data in patent publication US20260297081A1, “COMPOUNDS AND METHODS OF TREATING CANCERS” (Cullgen Inc., priority 2023, published 2026) are inhibition values, retold here.

The assay concerns the target CDK4 (Homo sapiens, UniProt P11802+Q16531). The experiment in a line: CDK4 percentage degradation in Calu-1 cells (Table 6). The class given is cell-based. Details: Cells that express cyclin D1-3 and CDK4/6 proteins were treated with heterobifunctional compounds; endogenous in cells; host or cells: Calu-1. Conditions: 16 hours; for inhibition at 0.04 µM: 40 nM; for inhibition at 0.2 µM: 200 nM. The gist of the method:
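Calu-1 cells exposed to heterobifunctional compounds at 40 nM or 200 nM for 16 h. Cyclin D1 and CDK4 levels measured by Western blot of RIPA lysates (BCA-normalised loading), bands quantified by densitometry and expressed as percentage degradation.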

A value given as a limit tells only on which side of the number the result lay.

Chain of CDK4 (P11802 2-303 limits assumed): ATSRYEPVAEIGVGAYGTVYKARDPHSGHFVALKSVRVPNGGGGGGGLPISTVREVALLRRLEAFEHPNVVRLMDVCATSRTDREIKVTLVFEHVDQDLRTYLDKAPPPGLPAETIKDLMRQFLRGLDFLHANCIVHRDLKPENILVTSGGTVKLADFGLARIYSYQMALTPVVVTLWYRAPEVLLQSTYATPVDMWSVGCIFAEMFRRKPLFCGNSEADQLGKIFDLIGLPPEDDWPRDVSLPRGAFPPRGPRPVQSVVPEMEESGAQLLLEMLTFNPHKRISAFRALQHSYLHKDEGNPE
Chain of CDK4 (P24385 whole entry partner): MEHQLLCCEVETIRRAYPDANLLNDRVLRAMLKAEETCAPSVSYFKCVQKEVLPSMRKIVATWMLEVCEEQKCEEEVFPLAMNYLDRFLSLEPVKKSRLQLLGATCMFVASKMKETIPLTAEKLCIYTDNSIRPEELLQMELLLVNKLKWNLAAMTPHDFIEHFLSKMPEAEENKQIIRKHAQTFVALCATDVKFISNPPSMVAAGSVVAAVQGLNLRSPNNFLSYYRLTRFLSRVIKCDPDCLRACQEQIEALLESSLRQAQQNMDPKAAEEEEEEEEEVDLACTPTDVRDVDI
Chain of CDK4 (Q16531 2-1140 limits assumed): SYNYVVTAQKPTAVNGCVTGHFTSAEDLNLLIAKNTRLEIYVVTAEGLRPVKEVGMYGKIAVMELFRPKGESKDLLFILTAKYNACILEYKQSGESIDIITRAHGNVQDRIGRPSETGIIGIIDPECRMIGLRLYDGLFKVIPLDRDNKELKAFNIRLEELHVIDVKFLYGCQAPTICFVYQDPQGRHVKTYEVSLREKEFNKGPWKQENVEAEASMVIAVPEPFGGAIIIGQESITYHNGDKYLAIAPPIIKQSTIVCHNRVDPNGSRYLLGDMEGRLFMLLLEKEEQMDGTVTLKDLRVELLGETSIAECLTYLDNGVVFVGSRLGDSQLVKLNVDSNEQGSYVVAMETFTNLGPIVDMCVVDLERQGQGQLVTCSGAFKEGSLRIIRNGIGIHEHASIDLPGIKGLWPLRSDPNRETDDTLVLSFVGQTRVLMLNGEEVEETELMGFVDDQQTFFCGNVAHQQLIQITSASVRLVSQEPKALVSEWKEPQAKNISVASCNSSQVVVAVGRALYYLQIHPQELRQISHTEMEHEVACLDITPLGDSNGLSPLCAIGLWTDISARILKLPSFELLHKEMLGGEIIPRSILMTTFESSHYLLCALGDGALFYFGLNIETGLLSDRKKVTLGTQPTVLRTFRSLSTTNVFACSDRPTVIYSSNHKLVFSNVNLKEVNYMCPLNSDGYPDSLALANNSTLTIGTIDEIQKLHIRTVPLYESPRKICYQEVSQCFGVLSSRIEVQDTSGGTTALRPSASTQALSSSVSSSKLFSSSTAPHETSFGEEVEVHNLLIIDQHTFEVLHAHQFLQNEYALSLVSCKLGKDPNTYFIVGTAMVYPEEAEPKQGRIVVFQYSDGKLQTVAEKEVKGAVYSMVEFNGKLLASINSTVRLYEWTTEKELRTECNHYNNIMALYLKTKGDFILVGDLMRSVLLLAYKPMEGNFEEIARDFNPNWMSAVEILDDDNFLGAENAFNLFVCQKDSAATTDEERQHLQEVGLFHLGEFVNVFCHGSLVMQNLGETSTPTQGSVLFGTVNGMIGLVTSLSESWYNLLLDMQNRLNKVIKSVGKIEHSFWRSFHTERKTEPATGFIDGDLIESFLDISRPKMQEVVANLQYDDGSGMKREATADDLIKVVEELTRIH

In general, inhibition refers to the relative decrease from the control value, in per cent. A high value points to strong suppression. In turn, `CNc1ccc(C(=O)Nc2cc(C)on2)c(NC2CCN(C(=O)CN3CCN(c4ccc(Nc5ncc6c(C)c(C(C)=O)c(=O)n(C7CCCC7)c6n5)nc4)CC3)CC2)n1` [CPD-229, 2-((1-(2-(4-(6-((6-acetyl-8-cyclopentyl-5-methyl-7-oxo-7,8-dihydropyrido[2,3-d]pyrimidin-2-yl)amino)pyridin-3-yl)piperazin-1-yl)acetyl)piperidin-4-yl)amino)-6-(methylamino)-N-(5-methylisoxazol-3-yl)nicotinamide] displayed an inhibition at 0.04 µM of 30 to 50% and an inhibition at 0.2 µM of 50 to 80%. For `CC(=O)c1c(C)c2cnc(Nc3ccc(N4CCN(CC(=O)NCCCCCNc5nc(C(F)(F)F)ccc5C(=O)Nc5ccc(N(C)C)nn5)CC4)cn3)nc2n(C2CCCC2)c1=O` [CPD-68, 2-((5-(2-(4-(6-((6-Acetyl-8-cyclopentyl-5-methyl-7-oxo-7,8-dihydropyrido[2,3-d]pyrimidin-2-yl)amino)pyridin-3-yl)piperazin-1-yl)acetamido)pentyl)amino)-N-(6-(dimethylamino)pyridazin-3-yl)-6-(trifluoromethyl)nicotinamide] the same measures were 30 to 50% and 50 to 80%. The corresponding values for `CNc1ccc(C(=O)Nc2cc[nH]n2)c(NC2CC3(CC(NC(=O)CN4CCN(c5ccc(Nc6ncc7c(C)c(C(C)=O)c(=O)n(C8CCCC8)c7n6)nc5)CC4)C3)C2)n1` (centres unmarked) [CPD-100, 2-((6-(2-(4-(6-((6-Acetyl-8-cyclopentyl-5-methyl-7-oxo-7,8-dihydropyrido[2,3-d]pyrimidin-2-yl)amino)pyridin-3-yl)piperazin-1-yl)acetamido)spiro[3.3]heptan-2-yl)amino)-6-(methylamino)-N-(1H-pyrazol-3-yl)nicotinamide] are less than 30% and 50 to 80%.

`CC(=O)c1c(C)c2cnc(Nc3ccc(N4CCN(CC(=O)NC5CC6(C5)CC(Nc5nc(C)ccc5C(=O)Nc5cn(C)c(C7CC7)n5)C6)CC4)cn3)nc2n(C2CCCC2)c1=O` (centres unmarked) [CPD-207, 2-((6-(2-(4-(6-((6-acetyl-8-cyclopentyl-5-methyl-7-oxo-7,8-dihydropyrido[2,3-d]pyrimidin-2-yl)amino)pyridin-3-yl)piperazin-1-yl)acetamido)spiro[3.3]heptan-2-yl)amino)-N-(2-cyclopropyl-1-methyl-1H-imidazol-4-yl)-6-methylnicotinamide] had an inhibition at 0.04 µM of 30 to 50% and an inhibition at 0.2 µM of 50 to 80%. On to `CNc1ccc(C(=O)Nc2ccc(N(C)C)nn2)c(NC2CC3(C2)CN(C(=O)N2CCN(c4ccc(Nc5ncc6c(C)c(C(C)=O)c(=O)n(C7CCCC7)c6n5)nc4)CC2)C3)n1` [CPD-133, 2-((2-(4-(6-((6-Acetyl-8-cyclopentyl-5-methyl-7-oxo-7,8-dihydropyrido[2,3-d]pyrimidin-2-yl)amino)pyridin-3-yl)piperazine-1-carbonyl)-2-azaspiro[3.3]heptan-6-yl)amino)-N-(6-(dimethylamino)pyridazin-3-yl)-6-(methylamino)nicotinamide], for which the inhibition at 0.04 µM was 30 to 50% and the inhibition at 0.2 µM lay in the range of 50 to 80%. The corresponding values for `CC(=O)c1c(C)c2cnc(Nc3ccc(N4CCN(CC(=O)NCCCCCNc5nc(C)ccc5C(=O)Nc5nc(C)c(C)s5)CC4)cn3)nc2n(C2CCCC2)c1=O` [CPD-3, 2-((5-(2-(4-(6-((6-acetyl-8-cyclopentyl-5-methyl-7-oxo-7,8-dihydropyrido[2,3-d]pyrimidin-2-yl)amino)pyridin-3-yl)piperazin-1-yl)acetamido)pentyl)amino)-N-(4,5-dimethylthiazol-2-yl)-6-methylnicotinamide] are 50 to 80% and 50 to 80%. For `CNc1ccc(C(=O)Nc2ccc(N(C)C)nn2)c(NC2CC3(C2)CN(C(=O)C(C)CN2CCN(c4ccc(Nc5ncc6c(C)c(C(C)=O)c(=O)n(C7CCCC7)c6n5)nc4)CC2)C3)n1` (centres unmarked) [CPD-117, 2-((2-(3-(4-(6-((6-Acetyl-8-cyclopentyl-5-methyl-7-oxo-7,8-dihydropyrido[2,3-d]pyrimidin-2-yl)amino)pyridin-3-yl)piperazin-1-yl)-2-methylpropanoyl)-2-azaspiro[3.3]heptan-6-yl)amino)-N-(6-(dimethylamino)pyridazin-3-yl)-6-(methylamino)nicotinamide] the same measures were 50 to 80% and 50 to 80%. For `CNc1ccc(C(=O)Nc2ccc(C)c(=O)[nH]2)c(NCCCCCNC(=O)CN2CCN(c3ccc(Nc4ncc5c(C)c(C(C)=O)c(=O)n(C6CCCC6)c5n4)nc3)CC2)n1` [CPD-123, 2-((5-(2-(4-(6-((6-Acetyl-8-cyclopentyl-5-methyl-7-oxo-7,8-dihydropyrido[2,3-d]pyrimidin-2-yl)amino)pyridin-3-yl)piperazin-1-yl)acetamido)pentyl)amino)-N-(5-methyl-6-oxo-1,6-dihydropyridin-2-yl)-6-(methylamino)nicotinamide] the same measures were less than 30% and 50 to 80%.

For the molecule `[2H]C([2H])([2H])Nc1ccc(C(=O)Nc2cccc(C)n2)c(NC2CC3(C2)CC(OC(C)(C)C(=O)N2CCN(c4ccc(Nc5ncc6c(C)c(C(C)=O)c(=O)n(C7CCCC7)c6n5)nc4)CC2)C3)n1` (centres unmarked) [CPD-226, 2-((6-((1-(4-(6-((6-acetyl-8-cyclopentyl-5-methyl-7-oxo-7,8-dihydropyrido[2,3-d]pyrimidin-2-yl)amino)pyridin-3-yl)piperazin-1-yl)-2-methyl-1-oxopropan-2-yl)oxy)spiro[3.3]heptan-2-yl)amino)-6-((methyl-d3)amino)-N-(6-methylpyridin-2-yl)nicotinamide], the inhibition at 0.04 µM was less than 30% and the inhibition at 0.2 µM lay within 30 to 50%. Molecule `CNc1ccc(C(=O)Nc2ccc(Cl)cn2)c(NCCCCCNC(=O)CN2CCN(c3ccc(Nc4ncc5c(C)c(C(C)=O)c(=O)n(C6CCCC6)c5n4)nc3)CC2)n1` [CPD-20, 2-((5-(2-(4-(6-((6-acetyl-8-cyclopentyl-5-methyl-7-oxo-7,8-dihydropyrido[2,3-d]pyrimidin-2-yl)amino)pyridin-3-yl)piperazin-1-yl)acetamido)pentyl)amino)-N-(5-chloropyridin-2-yl)-6-(methylamino)nicotinamide] showed an inhibition at 0.04 µM of less than 30%. As for `CNc1ccc(C(=O)Nc2ccc(C(F)(F)F)c(C3CC3)n2)c(NC2CC3(CC(NC(=O)CN4CCN(c5ccc(Nc6ncc7c(C)c(C(C)=O)c(=O)n(C8CCCC8)c7n6)nc5)CC4)C3)C2)n1` (centres unmarked) [CPD-87, 2-((6-(2-(4-(6-((6-Acetyl-8-cyclopentyl-5-methyl-7-oxo-7,8-dihydropyrido[2,3-d]pyrimidin-2-yl)amino)pyridin-3-yl)piperazin-1-yl)acetamido)spiro[3.3]heptan-2-yl)amino)-N-(6-cyclopropyl-5-(trifluoromethyl)pyridin-2-yl)-6-(methylamino)nicotinamide], the inhibition at 0.04 µM is less than 30% and the inhibition at 0.2 µM was less than 30%. Take `CC(=O)c1c(C)c2cnc(Nc3ccc(N4CCN(CC(=O)NC5CC6(C5)CC(Nc5nc(C)ccc5C(=O)Nc5cccc(C)n5)C6)CC4)cn3)nc2n(C2CCCC2)c1=O` (centres unmarked) [CPD-191, 2-((6-(2-(4-(6-((6-acetyl-8-cyclopentyl-5-methyl-7-oxo-7,8-dihydropyrido[2,3-d]pyrimidin-2-yl)amino)pyridin-3-yl)piperazin-1-yl)acetamido)spiro[3.3]heptan-2-yl)amino)-6-methyl-N-(6-methylpyridin-2-yl)nicotinamide]: the inhibition at 0.04 µM is less than 30% and the inhibition at 0.2 µM lay within 30 to 50%.
